Reference: ChEMBL document CHEMBL1146710, “Discovery of a novel series of DHODH inhibitors by a docking procedure and QSAR refinement” (Bioorg Med Chem Lett, 2004)

target: Dihydroorotate dehydrogenase (quinone), mitochondrial (Homo sapiens, UniProt Q02127)
Sequence (Q02127 whole entry): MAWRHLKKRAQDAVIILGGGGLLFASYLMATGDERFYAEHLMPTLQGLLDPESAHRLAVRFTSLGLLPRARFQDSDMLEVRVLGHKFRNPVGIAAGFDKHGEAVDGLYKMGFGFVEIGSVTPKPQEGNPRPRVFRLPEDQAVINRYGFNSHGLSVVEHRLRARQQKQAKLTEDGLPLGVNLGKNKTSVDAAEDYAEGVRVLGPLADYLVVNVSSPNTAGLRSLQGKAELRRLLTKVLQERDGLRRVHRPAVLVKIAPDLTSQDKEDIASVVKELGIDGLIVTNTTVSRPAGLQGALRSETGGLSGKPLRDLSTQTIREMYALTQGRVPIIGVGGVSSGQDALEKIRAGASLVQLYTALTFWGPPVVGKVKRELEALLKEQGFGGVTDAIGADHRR
Description: In vitro inhibitory activity against human dihydroorotate dehydrogenase (DHODH)

Row | IC50 [nM] | Compound
1 | 20 | O=C(O)C1=C(C(=O)Nc2ccc(-c3cccc(OC(F)(F)F)c3)c(Cl)c2)CCC1
2 | 280 | O=C(O)C1=C(C(=O)Nc2ccc(-c3cccc(OC(F)(F)F)c3)cc2F)CCC1
3 | 50 | CN(C)c1ccc(-c2ccc(NC(=O)C3=C(C(=O)O)CCC3)cc2Cl)cc1
4 | 70 | O=C(O)C1=C(C(=O)Nc2ccc(-c3ccc(Br)cc3)c(Cl)c2)CCC1
5 | 290 | O=C(O)C1=C(C(=O)Nc2ccc(-c3cccc(OC(F)(F)F)c3)cc2Cl)CCC1
6 | 1700 | COc1ccc(-c2ccc(NC(=O)C3=C(C(=O)O)CCC3)c(F)c2)cc1
7 | 735 | O=C(O)C1=C(C(=O)Nc2ccc(-c3ccc(Br)cc3)cc2F)CCC1
8 | 8 | COc1ccccc1-c1c(F)c(F)c(NC(=O)C2=C(C(=O)O)CCC2)c(F)c1F
9 | 840 | O=C(O)C1=C(C(=O)Nc2ccc(-c3cccc(OC(F)(F)F)c3)cc2C(F)(F)F)CCC1
10 | 390 | O=C(O)C1=C(C(=O)Nc2ccc(-c3cccc(OC(F)(F)F)c3)cc2[N+](=O)[O-])CCC1
11 | 150 | Cc1cc(-c2cccc(OC(F)(F)F)c2)ccc1NC(=O)C1=C(C(=O)O)CCC1
12 | 5700 | O=C(O)C1=C(C(=O)Nc2ccc(-c3ccc(OC(F)(F)F)cc3)cc2F)CCC1
13 | 8400 | COc1ccc(-c2ccc(NC(=O)C3=C(C(=O)O)CCC3)c(Cl)c2)cc1
14 | 2900 | O=C(O)C1=C(C(=O)Nc2ccc(-c3ccc(Br)cc3)cc2Cl)CCC1
15 | 370 | N#Cc1cc(-c2cccc(OC(F)(F)F)c2)ccc1NC(=O)C1=C(C(=O)O)CCC1
16 | 310 | COc1ccccc1-c1ccc(NC(=O)C2=C(C(=O)O)CCC2)c(Cl)c1
17 | 90 | COc1ccc(-c2cc(F)c(NC(=O)C3=C(C(=O)O)CCC3)c(F)c2)c(OC)c1
18 | 170 | COc1cccc(-c2ccc(NC(=O)C3=C(C(=O)O)CCC3)c(OC)c2)c1
19 | 17 | CCOc1cccc(-c2cc(F)c(NC(=O)C3=C(C(=O)O)CCC3)c(F)c2)c1
20 | 33 | O=C(O)C1=C(C(=O)Nc2c(F)cc(-c3cccc(OC(F)(F)F)c3)cc2F)CCC1
21 | 225 | COc1cc(-c2ccccc2Cl)ccc1NC(=O)C1=C(C(=O)O)CCC1
22 | 410 | O=C(O)C1=C(C(=O)Nc2ccc(-c3ccccc3)cc2)CCC1
23 | 45 | O=C(O)C1=C(C(=O)Nc2c(F)cc(-c3ccccc3F)cc2F)CCC1
24 | 610 | O=C(O)C1=C(C(=O)Nc2ccc(-c3cccc(O)c3)cc2F)CCC1
25 | 18 | O=C(O)C1=C(C(=O)Nc2c(F)cc(-c3ccccc3Cl)cc2F)CCC1
26 | 80 | CC(C)(C)c1ccc(-c2ccc(NC(=O)C3=C(C(=O)O)CCC3)cc2Cl)cc1
27 | 610 | CN(C)c1ccc(-c2cc(F)c(NC(=O)C3=C(C(=O)O)CCC3)c(F)c2)cc1

Row | Compound | IC50 [nM]
28 | O=C(O)C1=C(C(=O)Nc2c(F)c(F)c(-c3cccc(OC(F)(F)F)c3)c(F)c2F)CCC1 | 7
29 | O=C(O)C1=C(C(=O)Nc2ccc(-c3cccc4ccccc34)cc2C(F)(F)F)CCC1 | 180
